# From US6946259B2, “Compositions and methods for treating cells having double minute DNA” (The Salk Institute For Biological Studies, priority 1998, dated 2005)
# Entries after “also recorded” stand apart in the source; their conditions may differ. Counter-ions that a name gives are not always drawn.
# Experiments:
# [1] = system: COLO 320DM cells; assay: Quantification of c-myc+ (DM-containing) micronuclei in COLO 320DM cells by FISH; assay type: cell-based, human; details: for micronucleation (frequency of c-myc+ micronuclei): COLO 320DM cells treated for 3 days; for micronucleation efficiency at concentrations that severely inhibited S-phase: COLO 320DM cells, 3 days, high drug concentrations
# Method: (§1) FIGS. 3A and 3B show the effects of various drugs on induction of micronuclei and cell cycle distribution. COLO 320DM cells were treated for 3 days with inhibitors of DNA replication (aphidicolin (“APH”); deferoxamine (“Def”), guanazole (“Gua”); hydroxurea (“HU”); and PALA), repair (coumarin (“Cou”); nicotinamide (“NA”)) or the membrane active agent DMSO at the concentrations indicated. In FIG. 3A, the treated cells were fixed with methanol/acetic acid and hybridized with c-myc cosmid probe. The numbers of micronuclei that were stained brightly with c-myc probe were scored and expressed as “frequency of c-myc^+ micronuclei (%)” relative to the number of interphase nuclei scored (more than 1000 for each point). In FIG. 3B, the cells were pulse-labeled with BrdU (for 30 min) at the end of the drug treatment, and analyzed by flow cytometry as described below to determine the fraction of cells in G1, S, and G2/M.
# Micronuclei containing DM sequences in COLO 320DM cells (FIGS. 2 and 3) were detected by preparing chromosome spreads using standard hypotonic swelling conditions (Lawce and Brown (1991)), followed by hybridization with a biotinylated c-myc cosmid probe as described previously (Shimizu, et al. (1996)). Total micronuclei (FIG. 3) were determined by staining chromosome spreads with DAPI (Sigma; 1 μg/ml in VectaShield, Vector Inc.). The adherent cells (WS1, RPE-h and their derivatives) were grown on cover slips, fixed with cold acetone (−20° C. for 5 min) followed by cold methanol (−20° C. for 5 min), re-hydrated with PBS and stained with DAPI (1 μg/ml in VectaShield). The numbers of total or DM-enriched micronuclei were scored using 60× or 100× objectives and Zeiss fluorescence microscope equipped with appropriate epifluorescence filters. The results are expressed as “Frequency of micronuclei (%)” relative to the number of interphase nuclei scored (at least 1000 for each point).
# [2] = system: COLO 320DM cells; assay: Cell cycle distribution of COLO 320DM cells by BrdU/PI flow cytometry; assay type: cell-based, human; details: COLO 320DM cells treated for 3 days
# Method: as §1
# Cell cycle distribution was analyzed using flow cytometry as described previously (Yin, et al. (1992) and Di Leonardo, et al. (1994)). Cells treated with the indicated concentrations of drugs for the indicated times were labeled with 10 μM BrdU for 30 min. […] Samples were analyzed using a Becton Dickinson FACScan. […] Data was analyzed using Sun Display as described previously (Yin, et al. (1992) and Di Leonardo, et al. (1994)).
# [3] = system: human and rodent cell lines; details: cited from earlier work
# [4] = system: COLO 320DM cells; assay: Localization of DMs in interphase nuclei by FISH and confocal microscopy; assay type: cell-based, human; details: 100 μM HU for 3 days
# Method: Preparation of probe from purified micronuclei was as described (Shimizu, et al. (1996)), except that DNA in the purified micronuclei was directly used for biotin-labeling by using BioPrime DNA Labeling System (Life Technologies Inc. Gaithersburg, Md.). FISH using standard methanol/acetic acid-fixed nuclei was performed as described previously (Shimizu, et al. (1996)). Assessments of DM localization by confocal microscopy required the following procedure to preserve the spherical shape of the nuclei. This protocol, based on that developed for human lymphocytes (Ferguson and Ward (1992) and Vourc'h, et al. (1993)), could not be applied directly to COLO 320DM due to severe nuclear aggregation. The modified procedure involves pelleting 10 ml of COLO 320DM cells by centrifugation at 260×g for 5 min, followed by complete removal of the supernatant. […] The acquired digital images were expressed as pseudocolors, and merged using Adobe Photoshop (Adobe Systems Inc., Mountain View, Calif.).
# The locations of DMs in confocal nuclear sections were determined by measuring the distance from each of the hybridized signals to the center of the nucleus using the corresponding nuclear diameter as a unit length. […] The distances from this dot to the center of the nucleus and the nuclear diameter were determined. […] At the same time, the intensity of each signal was measured using an arbitrary unit scale. […]
# [5] = system: COLO 320DM cells; assay: DM content per cell by competitive PCR amplification; assay type: cell-based, human; details: HU treatment, data not shown
# [6] = system: WS1 human diploid fibroblasts; assay: Frequency of micronuclei (DAPI) in WS1 normal diploid fibroblasts; assay type: cell-based; details: WS1 cells, drug for 3 days
# Method: (§2) Wild type (wt) WS1 human diploid fibroblasts, or transformants expressing the neomycin resistance gene (neo) or both neo and the human papilloma virus E6 protein (E6) were generated by retroviral transduction. These cells were cultured in the absence or the presence of HU or PALA at the indicated concentrations for 3 days. […] The number of micronuclei were scored and expressed as the frequency of micronuclei (%) relative to the number of interphase nuclei scored (more than 1000 for each point). In FIG. 7B, cell cycle effects of these drugs were examined as in FIG. 2B. […] In FIG. 7C, progression through S-phase or M-phase was monitored by the incorporation of [^3H]thymidine (closed symbols) or the fraction of mitotic cells determined by microscopic detection of metaphase figures (open symbols). In FIG. 7D, the cells on the cover slips were fixed, stained with DAPI, and the frequencies of micronuclei relative to the number of interphase nuclei were scored. More than 500 nuclei were counted for each point and the results are expressed as mean±S.D for WS1 neo and WS1-E6 cells (3 independent determinations for each strain; the error bars for WS1 neo data points were smaller than the sizes of the symbols). Nuclear budding frequencies were determined on the same slides as used to determine micronucleation index (more than 1000 nuclei for each point). […]
# [7] = system: WS1 E6 cells; assay: Frequency of micronuclei (DAPI) in WS1 E6 fibroblasts; assay type: cell-based, human; details: WS1 fibroblasts expressing E6, drug for 3 days
# Method: as §2
# [8] = system: WS1 human diploid fibroblasts; assay: Cell cycle distribution of WS1 fibroblasts by flow cytometry; assay type: cell-based; details: WS1 cells, drug for 3 days
# Method: as §2
# [9] = system: WS1 E6 cells; assay: Cell cycle distribution of WS1 E6 fibroblasts by flow cytometry; assay type: cell-based, human; details: WS1 fibroblasts expressing E6, drug for 3 days
# Method: as §2
# [10] = system: COLO 320DM cells; assay: Apoptosis in COLO 320DM cells (TUNEL assay); assay type: cell-based, human; details: COLO 320DM cultures, prolonged incubation
# Method: TUNEL assay was done according to a previously published procedure (Gavrieli, et al. (1992)) and modified as described below. In brief, COLO 320DM cells were fixed in 2% PFA (10 min at room temperature), and centrifuged onto a glass slide using a cytospin apparatus. The cells were further fixed in cold methanol (−20° C., 5 min) followed by cold acetone (−20° C., 5 min). The slides were rehydrated in PBS, then equilibrated in reaction buffer (200 mM sodium cacodylate, 1 mM MgCl2, 1 mM β-mercaptoethanol, pH 7.2) for 15 min at room temperature. The end-labeling reaction was done by incubating the slides with the reaction buffer containing 10 μM biotin-dUTP (Boehringer Mannheim GmbH, Germany), and 0.3 units/μl of terminal deoxynucleotidyl transferase (Toyobo Co., Osaka, Japan), for 60 min at 37° C. The slides were washed extensively, blocked with 20% FCS, and the incorporated biotin was detected using FITC conjugated streptavidin as in the protocol for FISH (see below). The slides were treated with RNAse A (100 μg/ml 37° C., for 20 min), counterstained with PI, and observed under the conditions used for FISH.
structure (smiles),measurement,setting,value
"O=c1ccc2ccccc2o1 [Coumarin, 1,2-benzopyrone]",micronucleation (frequency of c-myc+ micronuclei),[1],no effect on micronucleation
"CC(=O)N(O)CCCCCNC(=O)CCC(=O)N(O)CCCCCNC(=O)CCC(=O)N(O)CCCCCN [deferoxamine, deferoxamine mesylate]",micronucleation (frequency of c-myc+ micronuclei),[1],substantial increases in micronucleation
same,micronucleation efficiency at concentrations that severely inhibited S-phase,[1],sharp decrease in micronucleation efficiency
C[S+](C)[O-] [DMSO],micronucleation (frequency of c-myc+ micronuclei),[1],increased micronucleation
same,"cell cycle distribution (fraction of cells in G1, S, G2/M)",[2],without lengthening S-phase
same,DM copy number,[3]; some tumor cell lines,reduce DM copy number
"C[C@@]1(CO)[C@H](O)CC[C@@]2(C)[C@H]1CC[C@H]1C[C@@H]3C[C@@]12CC[C@]3(O)CO [aphidicolin, Aphidicolin]",micronucleation (frequency of c-myc+ micronuclei),[1],substantial increases in micronucleation
"NC(=O)NO [HU, hydroxyurea]",micronucleation (frequency of c-myc+ micronuclei),[1],substantial increases in micronucleation
same,nuclear position of DMs (peripheral localization),[4],preferentially depleted DMs from the nuclear periphery; also recorded: Very few peripheral DMs were detected
same,reduction of DM content per cell,[5],approximately 3 fold
same,micronucleation rate,[6],not increased
same,micronucleation rate,[7],substantial further increase in micronucleation rate
same,cell cycle effect,[8],did not significantly affect the percentage of WS1 cells in S-phase
same,number of cells in S-phase,[9],significant increase in the number of cells in S-phase
same,apoptosis,[10],apoptotic cells did arise
same,loss rate of DMs,[3]; human and rodent cell lines,significantly increase the loss rate of DMs
NC(=O)c1cccnc1 [nicotinamide],micronucleation (frequency of c-myc+ micronuclei),[1],small increase
same,"cell cycle distribution (fraction of cells in G1, S, G2/M)",[2],significant increase in the G2 fraction
"Nc1n[nH]c(N)n1 [guanazole, 3,5-diamino-1,2,4-triazole]",micronucleation (frequency of c-myc+ micronuclei),[1],substantial increases in micronucleation
"O=C(O)C[C@H](NC(=O)CP(=O)(O)O)C(=O)O [PALA, N-phosphonacetyl-L-aspartate]",micronucleation (frequency of c-myc+ micronuclei),[1],substantial increases in micronucleation; also recorded: induces S-phase micronucleation
same,micronucleation efficiency at concentrations that severely inhibited S-phase,[1],sharp decrease in micronucleation efficiency
same,micronucleation rate,[6],not increased
same,micronucleation rate,[7],substantial further increase in micronucleation rate
same,cell cycle effect,[8],induced a G1 cell cycle arrest
same,number of cells in S-phase,[9],significant increase in the number of cells in S-phase
